Test results: a melting point compilation (Tetko et al.; mined from patent text by program, amines drawn as free bases though some values may be those of a salt)
Residues, ends and D or L forms follow the SMILES beside them. *: point of attachment. Tos = Cc1ccc(S(=O)(=O)*)cc1; NHPh = c1ccc(N*)cc1

First: C#CCCOc1ccc(C=O)cc1OC
Second: Nc1cccc(OCc2ccccc2)c1N
The melting point of the first is higher: 101 to 102 °C for the first, 68 °C for the second.

First: CCOC(=O)C(Cc1ccc(OCCN2CCC(C)(C)c3cc(C(=NOC)c4ccccc4)ccc32)cc1)Oc1ccc(C(F)(F)F)cc1 (stereo not drawn)
Second: CCOC(=O)Oc1ccc(S(=O)(=O)N2c3cc(C(F)(F)F)ccc3-n3cccc3C2CC)cc1 (stereo not drawn)
The melting point of the first is lower: 44 to 46 °C for the first, 88 to 90 °C for the second.

First: CC(C)c1coc(=O)n1-c1cc(F)c(C#N)cc1F
Second: CC(C)Cn1c(=O)[nH]c(=O)c2nccnc21
The melting point of the first is lower: 83 °C for the first, 200 to 201 °C for the second.

First: CCC(=O)Oc1cc(C(C)C)ccc1C1(OC(=O)CC)C(=O)c2ccccc2C1=O
Second: O=C(CCl)Nc1ccc2c(c1NC(=O)c1cccs1)C(=O)c1ccccc1C2=O
The melting point of the first is lower: 123 to 125 °C for the first, 190 to 191 °C for the second.

First: CC(C)(C)c1cc(I)c2c(c1)CNC1(CCSCC1)O2
Second: Cc1ccc(-c2ccc3c(c2)C=C(C(=O)NC2CCN(C(=O)OC(C)(C)C)CC2)CCO3)cc1
The melting point of the first is lower: 123 to 124 °C for the first, 205 to 208 °C for the second.

First: Nc1nc(Nc2ccccc2)nc(-c2cc(Cl)ccc2Cl)n1
Second: N=C(Nc1ccc(Cl)cc1)Nc1ncccc1OCc1cccc(Cl)c1F
The melting point of the first is lower: 180 to 181 °C for the first, 204 to 207 °C for the second.

First: Cc1ccc(CCc2cc(Br)c3nc(N)sc3c2)nc1
Second: CC(=O)OCCc1cc2c(s1)SCCc1cc(=O)n(-c3ccc(Cl)cc3)nc1-2
The melting point of the first is higher: 216 to 218 °C for the first, 115 to 117 °C for the second.

First: CSc1c(C(=O)O)ccc(Br)c1F
Second: CCCCCCc1oc(C=Cc2ccccc2)nc1C(=O)O
The melting point of the first is lower: 126 to 129 °C for the first, 133 to 134 °C for the second.

`COc1c(Br)cc(-c2c3ccccc3cc3sc4ccccc4c23)cc1Br` and `CNc1nc(-c2ccc3c(c2)NC(=O)CO3)c(-c2ccccc2)s1` cannot be ordered by melting point: 238 to 240 °C for the first, 236 to 248 °C for the second.

Compared with `CCOC1CCN(C(=O)c2cc(-c3ccccc3)c(=O)n3ccc4ccsc4c23)C1` (stereo not drawn), `CN1CCN(c2cc(=O)c3ccc4ccccc4c3o2)CC1` is higher in melting point: 167 to 170 °C for the first, 184 to 185 °C for the second.

First: CC(CCc1ccc(Cl)cc1)(Cn1ccnc1)Sc1cc(Cl)ccc1Cl (stereo not drawn)
Second: COC(=O)CCc1ccc(OCC2CCN(c3ccncc3)CC2)cc1
The melting point of the first is higher: 150 °C for the first, 96.5 to 98.5 °C for the second.

First: COc1cc2c(cc1Nc1ncc(Cl)c(Nc3ccc(N4CCOCC4)cc3OC)n1)CCN(CCNC(C)=O)CC2
Second: Cc1cc(OCC(=O)O)ccc1NC(=O)c1ccc(N2CCNCC2)cc1
The melting point of the first is lower: 50 to 65 °C for the first, > 250 °C for the second.

First: CCOCCn1cc2c(C3C(=O)Nc4ccc(Cl)cc43)nc(NCc3cccnc3)nc2n1 (stereo not drawn)
Second: CSc1ccc(-c2nn(Cc3cccnc3)c(=O)cc2-c2ccc(F)cc2)cc1
The melting point of the first is higher: 294 to 296 °C for the first, 160 to 161 °C for the second.

First: CCCc1c2c(c3oc(C(=O)OC)cc(=O)c3c1OC)CCCC2
Second: CCOC1Nc2c(OC(C)=O)cccc2C(=O)N2CCCC12 (stereo not drawn)
The melting point of the first is lower: 124 °C for the first, 146 to 149 °C for the second.

Compared with `CC(C)c1cccc(NC(=O)c2ccccc2[N+](=O)[O-])c1`, `Cc1ccc(S(=O)(=O)N[C@@H](C)C(=O)N2CCC[C@H]2C(=O)Nc2ccccc2)cc1` (Tos-Ala-Pro-NHPh) is higher in melting point: 65.5 to 68.5 °C for the first, 145 to 147 °C for the second.

First: CC1(C)CC(N(c2nc(F)nc(N(C3CC(C)(C)N(O)C(C)(C)C3)C3CC(C)(C)N(O)C(C)(C)C3)n2)C2CC(C)(C)N(O)C(C)(C)C2)CC(C)(C)N1O
Second: O=C1Cc2cc(CCN3CCC(c4noc5cc(F)ccc45)CC3)ccc2N1
The melting point of the first is higher: 254 to 257 °C for the first, 199 to 204 °C for the second.

Compared with `NCC1CC(CCC(=O)O)=NO1` (stereo not drawn), `O=C(CCCCCNC(=O)CCc1ccccc1)NO` is lower in melting point: 201 °C for the first, 107 °C for the second.

First: CCCCc1ncc(C=C2C(=O)NC(=O)N2CCCC)n1Cc1ccccc1C(=O)O
Second: O=C(CCCCCCc1ccccc1)c1c(O)c2cccnc2n(-c2ccccc2)c1=O
The melting point of the first is higher: 287 to 289 °C for the first, 153 to 154 °C for the second.

Compared with `Cn1nc(CBr)cc1C(=O)NCCc1ccccc1`, `Cc1nc2nc[nH]c2c2nc(-c3ccccc3)nn12` is higher in melting point: 112 to 113 °C for the first, 285 °C for the second.
